The text below walks through data of ChEMBL document CHEMBL1201862, “PubChem BioAssay data set” (2004).

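96-well plates; 48 h exposure; 5 concentrations. Endpoints by linear interpolation between flanking doses. Not reached: highest tested concentration assigned. GI50 is the concentration that inhibits growth by half.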 Activity calls are given as the source filed them. No stated cut-off is given here; in the data, active = GI50 up to about 1.1 µM and inactive = higher.

Some test systems named below: 786-0; A498; HOP-62; M14; Malme-3M; OVCAR-3; OVCAR-4; OVCAR-5; RXF 393; SF-268; SF-295; SF-539; SK-OV-3; HCT-15; EKVX.
Holding throughout (assay): NCI-60 cell line screen, 48 h

`c1ccc2c(c1)[Se]c1ccccc1[Se]2`: the GI50 with 786-0, with A498, in the experiment on HOP-62, in the experiment on M14, in the experiment on Malme-3M and with OVCAR-3 was > 100 µM (inactive) throughout. For the same compound, the GI50 was 23.4 µM (inactive) with OVCAR-4; > 100 µM (inactive) in the experiment with OVCAR-5; 61.8 µM (inactive) in the experiment on RXF 393; > 100 µM (inactive) in the experiment with SF-268; 25.6 µM (inactive) in the experiment with SF-295; 44.3 µM (inactive) in the experiment on SF-539. Besides, the GI50 with SK-OV-3 is > 100 µM (inactive).
For `CC(=O)Nc1cc(N(CCOS(C)(=O)=O)CCOS(C)(=O)=O)ccc1N=O`, the GI50 with 786-0 was > 100 µM (inactive); with HCT-15, greater than 100 µM; in the experiment on HOP-62, > 100 µM (inactive); in the experiment with M14 it was > 100 µM (inactive); in the experiment with Malme-3M, > 100 µM (inactive); in the experiment with OVCAR-3 it was > 100 µM (inactive). Moreover, the GI50 in the experiment on OVCAR-4, in the experiment on OVCAR-5, in the experiment with SF-268, with SF-295 and in the experiment on SF-539 was > 100 µM (inactive) throughout.
As for `CC(C)c1cc2c(O)c(c1)Cc1cc(C(C)C)cc(c1O)Cc1cc(C(C)C)cc(c1O)Cc1cc(C(C)C)cc(c1O)C2`, the GI50 in the experiment with 786-0 was > 100 µM (inactive); in the experiment with A498, > 100 µM (inactive); in the experiment on EKVX it was > 100 µM (inactive); in the experiment with HCT-15, greater than 100 µM; in the experiment on HOP-62 it was > 100 µM (inactive); in the experiment on Malme-3M, > 100 µM (inactive). Besides, the GI50 with OVCAR-3, in the experiment with OVCAR-4, in the experiment with OVCAR-5, with RXF 393, in the experiment with SF-268 and with SF-295 was > 100 µM (inactive) throughout. In addition, the GI50 in the experiment with SF-539 and in the experiment on SK-OV-3 was > 100 µM (inactive) in each case.
`CCc1cc(CCC(=O)Nc2ccccc2[N+](=O)[O-])nc(S)n1`: the GI50 in the experiment on 786-0 was > 100 µM (inactive); with EKVX, > 100 µM (inactive); in the experiment on HCT-15, greater than 100 µM; in the experiment on HOP-62 it was > 100 µM (inactive); in the experiment with M14, > 100 µM (inactive); with OVCAR-3 it was > 100 µM (inactive). In addition, the GI50 in the experiment on OVCAR-5, in the experiment with RXF 393, in the experiment on SF-268, in the experiment on SF-295, with SF-539 and in the experiment with SK-OV-3 was > 100 µM (inactive) each time.
As to `OCCCOC(c1ccccc1)(c1ccccc1)c1ccccc1`, the GI50 with 786-0 was > 100 µM (inactive); in the experiment on HCT-15, greater than 100 µM; in the experiment with HOP-62, 39.7 µM (inactive); with M14, > 100 µM (inactive); with Malme-3M, > 100 µM (inactive); with OVCAR-3, > 100 µM (inactive). The GI50 in the experiment with OVCAR-4 was > 100 µM (inactive); in the experiment with OVCAR-5 it was > 100 µM (inactive); with RXF 393, < 0.01 µM (active); in the experiment on SF-268, > 100 µM (inactive); with SF-295, 82.6 µM (inactive); with SF-539, > 100 µM (inactive). Besides, the GI50 with SK-OV-3 is > 100 µM (inactive).
Take `CC(O)CN1C(=O)NC(Cc2ccccc2)C1=O` (stereo not given): the GI50 was > 100 µM (inactive) with 786-0; > 100 µM (inactive) with EKVX; 29.5 µM (inactive) with HOP-62; > 100 µM (inactive) in the experiment on M14; > 100 µM (inactive) with OVCAR-5; > 100 µM (inactive) in the experiment on RXF 393. The GI50 in the experiment on SF-268, with SF-295 and in the experiment on SF-539 was > 100 µM (inactive) throughout.
For `COc1cc(C2C(C(=O)O)=C(C)Oc3cc4c(cc32)OCO4)cc(OC)c1OC` (stereo not given), the GI50 with 786-0 is 37.2 µM (inactive); with EKVX, 58.5 µM (inactive); with HCT-15, 18.5 µM; in the experiment on M14, 59 µM (inactive); in the experiment with Malme-3M, 32.1 µM (inactive); with OVCAR-3 it was 19.3 µM (inactive). For the same compound, the GI50 with OVCAR-4 is 50.8 µM (inactive); with RXF 393, 11.6 µM (inactive); in the experiment with SF-295 it was 17.3 µM (inactive); with SK-OV-3, 39.9 µM (inactive).
On to `COc1ccccc1N1C(=O)/C(=C/c2ccc(N(CCC#N)CCC#N)cc2C)N=C1c1cc([N+](=O)[O-])ccc1Cl`, for which the GI50 in the experiment with 786-0 was > 100 µM (inactive); in the experiment on A498 it was > 100 µM (inactive); in the experiment on EKVX it was > 100 µM (inactive); in the experiment with HCT-15, greater than 100 µM; in the experiment with HOP-62, > 100 µM (inactive); in the experiment with M14, 68.2 µM (inactive). The GI50 is > 100 µM (inactive) with Malme-3M; > 100 µM (inactive) in the experiment on OVCAR-3; 20.6 µM (inactive) with OVCAR-4; > 100 µM (inactive) with OVCAR-5; > 100 µM (inactive) with SF-268; > 100 µM (inactive) in the experiment on SF-295. For the same compound, the GI50 with SF-539 and in the experiment on SK-OV-3 was > 100 µM (inactive) each time.
For `CN(c1ccccc1)C(c1ccccc1)C(O)c1ccccc1` (stereo not given), the GI50 in the experiment on 786-0 was 18.2 µM (inactive); with A498 it was 22 µM (inactive); in the experiment with EKVX, 25.1 µM (inactive); in the experiment on HCT-15, 21.7 µM; in the experiment on HOP-62, 20.4 µM (inactive); in the experiment with M14, 16.6 µM (inactive). Also, the GI50 with Malme-3M was 16.3 µM (inactive); in the experiment with OVCAR-3, 17.3 µM (inactive); in the experiment with OVCAR-4, 18.1 µM (inactive); with OVCAR-5, 19.5 µM (inactive); in the experiment on SF-268, 21.4 µM (inactive); with SF-295, 15.8 µM (inactive). For the same compound, the GI50 in the experiment on SF-539 is 22.1 µM (inactive); with SK-OV-3 it was 22.6 µM (inactive).
Regarding `COc1ccc(/C=C2/C(=O)N(C(=O)c3ccc(Cl)cc3)N=C2C)cc1OC`, the GI50 with 786-0 is > 100 µM (inactive); in the experiment with A498 it was > 100 µM (inactive); in the experiment with EKVX it was > 100 µM (inactive); in the experiment on HCT-15 it was greater than 100 µM; with HOP-62 it was > 100 µM (inactive); in the experiment on M14, > 100 µM (inactive). In addition, the GI50 in the experiment with Malme-3M, with OVCAR-3, in the experiment with OVCAR-4, in the experiment on OVCAR-5, with SF-268 and in the experiment with SF-295 was > 100 µM (inactive) throughout. Further, the GI50 in the experiment with SF-539 and in the experiment with SK-OV-3 was > 100 µM (inactive) in each case.
Turning to `COc1ccccc1/C=N/N=C(\N)NO`, the GI50 in the experiment on 786-0 is 23 µM (inactive); with A498, 33.5 µM (inactive); in the experiment on EKVX, 18.9 µM (inactive); in the experiment on HCT-15, 6.32 µM; in the experiment with HOP-62, 6 µM (inactive); in the experiment with Malme-3M, 30 µM (inactive). Also, the GI50 with OVCAR-3 is 45.1 µM (inactive); in the experiment on OVCAR-4, 38.4 µM (inactive); with OVCAR-5 it was 4.58 µM (inactive); with RXF 393, 28 µM (inactive); with SF-268 it was 20.5 µM (inactive); in the experiment with SF-295, 3.09 µM (inactive). In addition, the GI50 in the experiment on SF-539 was 3.03 µM (inactive); with SK-OV-3 it was 71.9 µM (inactive).
Turning to `Cc1ccc(S(=O)(=O)OC2CC=CC2)cc1`, the GI50 was > 100 µM (inactive) with 786-0; > 100 µM (inactive) with EKVX; greater than 100 µM in the experiment with HCT-15; > 100 µM (inactive) in the experiment with HOP-62; > 100 µM (inactive) in the experiment with M14; > 100 µM (inactive) in the experiment on Malme-3M. In addition, the GI50 in the experiment with OVCAR-3, in the experiment with OVCAR-4, in the experiment with OVCAR-5, in the experiment on RXF 393, in the experiment with SF-295 and in the experiment on SK-OV-3 was > 100 µM (inactive) in each case.
